Consider three compounds from patent US7022712B2, “Solubilization of weak bases” (Arizona Board of Regents on Behalf of the University of …, priority 2002, dated 2006).

The conditions of series [1]: listed for preferred weak bases, no method given; cited from earlier work.
Series [2] is described as follows: physchem. The note with it: for solubility at 10 days: thermodynamic from solid. In kind it is physicochemical. The source says: The buffer systems used for the pH-solubilization profile were 0.01 M sodium citrate/HCl with pH range 1.2–4.0, 0.01 M citrate-phosphate-borate/HCl with pH range 4.0–8.0, and 0.01M glycine/NaOH with pH range 8.0–12.0. In all the above mentioned buffers the ionic strength was maintained at 0.1M using sodium chloride. The effect of buffer species on the solubility of carbendazim at very low and high pH was not observed because the Ksp of each salt was not reached. Solubility at different pH was determined in the same manner as described below.
(§1) An excess amount of carbendazim was added to vials containing 2 ml of an aqueous solution of pH 2.00±0.15 and 7.00±0.15 at different concentrations (0, 1, 2.5, 5, and 10%) of cosolvents (EtOH, PG, PEG 400, and Glycerol), surfactants (Tween 20, Tween 80, sodium lauryl sulfate (SLS), and myristoyl camitine (MC)) and cyclodextrins (HPβCD and SBEβCD). In addition the cosolvents and cyclodextrins were studied at 20%. The sample vials were rotated at 20 rpm using an end-over-end mechanical rotator (Glas-Col Laboratory rotator, Terre Haute, Ind.) at ambient temperature for 10 days. Ten days was selected to ensure equilibrium because the strong crystal structure and high melting point (305° C.) (Budavari, S., 1996. The Merck Index, Twelfth ed. Merck & Co, New Jersey) of carbendazim contributes to a very slow dissolution rate. For solutions having pH greater than 9, the solubility was measured after 3 days rotation instead of 10 days because of the unstable nature of carbendazim in alkaline condition. The samples were filtered through a 0.45-μm filter and the pH at equilibrium was measured before performing HPLC analysis.
The HPLC assay used an Econosphere C8 column (150*4.6 mm, Alltech, Los Altos, Calif.) with a mobile phase composed of pure methanol. The flow rate was controlled at 1.0 ml/min (125 solvent Module, Beckman, Fullerton, Calif.) and the effluent was detected at 280 nm (168 detector, Beckman, Fullerton, Calif.). All experimental data are the average of duplicate values with an average error less than 3%.
The formation of a resonance-stabilized cation and anion is believed responsible for the high solubilities at low and high pH that are shown in FIG. 2. […] FIGS. 7–9 show the pH profile of three other drugs, obtained using analogous methods.

Series [3] is described as follows: physchem. In kind it is physicochemical. The note with it: thermodynamic from solid, Solubility of carbendazim. As for the experimental part: as §1, with “Ten days was selected to ensure equilibrium because the strong crystal structure and high melting point (305° C.) (Budavari, S., 1996. The Merck Index, Twelfth ed. Merck & Co, New Jersey) of carbendazim contributes to a very slow dissolution rate.” left out
The HPLC assay used an Econosphere C8 column (150*4.6 mm, Alltech, Los Altos, Calif.) with a mobile phase composed of pure methanol. The flow rate was controlled at 1.0 ml/min (125 solvent Module, Beckman, Fullerton, Calif.) and the effluent was detected at 280 nm (168 detector, Beckman, Fullerton, Calif.). […]

A further series in a line: in vivo. To be noted: mouse. The text has this:
The bioavailability of carbendazim was studied in the mouse. An intravenous dose, a formulation of carbendazim in corn oil, and a formulation of carbendazim in phosphoric acid corresponding to the phosphoric acid concentration in Emetrol were each given to a mouse. The blood level on the graph is indicative of the amount of drug absorbed divided by the blood volume of the mouse.

As a reminder, the pKa is the pH at which an ionisable group is half protonated. Usually solubility stands for how much of the substance goes into solution per volume. Higher therefore signals much dissolved substance. The Cmax is the peak of the concentration-time curve. A word on the bioavailability: it is the share of a dose that reaches the circulation, judged against a reference dose that is usually intravenous.

In brackets after ≈: the same amount, converted by molar mass. Like-named read-outs stand apart in the source and are kept apart here.

As for `Cc1cc(NC(=O)NC(=O)c2ccccc2N(C)C)ccc1Oc1ncc(N)cn1`, the pKa in series [1] is listed as about 5.

`COC(=O)Nc1nc2ccccc2[nH]1` [carbendazim, methyl 2-benzimidazolecarbamate]: the intrinsic solubility in the series “physchem [2]” (10 days) worked out at 6.11 µg/mL. Also, the pKa came out at 10.6 in the series “physchem [2]” (acidic pKa) and 4.5 in “physchem [2]” (basic pKa). Also, the solubility at 10 days in the series “physchem [2]” (pH 1, aqueous buffer) is 16000 µg/mL (≈ 83.7 mM); in “physchem [2]” (pH 2, aqueous buffer), 1600 µg/mL (≈ 8.37 mM); in “physchem [3]” (pH 2, aqueous buffer), 1640 µg/mL (≈ 8.58 mM); in the series “physchem [3]” (pH 7, aqueous buffer), 6 µg/mL (≈ 0.0314 mM). The compound further yielded a peak concentration (Cmax) in the series “in vivo” (iv, 6.4 ug) of 15000 ng/mL. For the same compound, the bioavailability in the series “in vivo” (iv, 6.4 ug) came out at 100%.

For Corn oil, in the series “in vivo” (po, 132 mg), the “% Bioavailability” value is on record as 4.8–6.4% and the Cmax fell in the range of 15000 to 20000 ng/mL.
